{"source": "ChEMBL document CHEMBL3885861", "about": "“Open TG-GATES”", "species": "Rattus norvegicus", "assay": "Open TG-GATES - Regimen: Single", "format": "toxicity, organism-based, Sprague-Dawley", "parameters": "regimen Single, gender Male, age 6 weeks", "conditions": "in vivo, po, 10 mg/kg, route gavage, dose level High; for APTT / Bas / Eos / Fbg / Hb / Ht / Lym / MCH / MCHC / MCV / Mono / Neu / PT / Plat / RBC / Ret / WBC: tissue Blood; for KIDNEY_L / KIDNEY_R / KIDNEY_TOTAL: tissue Kidney; for LIVER: tissue Liver; for A/G / ALP / ALT / AST / BUN / CRE / Ca / Cl / DBIL / GLC / IP / K / LDH / Na / PL / RALB / TBIL / TC / TG / TP / gamma-GTP: tissue Plasma", "data": [{"molecule": "CN1C(C(=O)Nc2ccccn2)=C(O)c2sc(Cl)cc2S1(=O)=O", "note": "[LORNOXICAM]", "values": [{"measurement": "TERMINAL_BW", "setting": "3 h", "result": 225.5, "unit": "g"}, {"measurement": "APTT", "setting": "3 h", "result": 20.6, "unit": "s"}, {"measurement": "Bas", "setting": "3 h", "result": 0.6, "unit": "%"}, {"measurement": "Eos", "setting": "3 h", "result": 1, "unit": "%"}, {"measurement": "Fbg", "setting": "3 h", "result": 212.8, "unit": "mg/dL"}, {"measurement": "Hb", "setting": "3 h", "result": 13.3, "unit": "g/dL"}, {"measurement": "Ht", "setting": "3 h", "result": 40.2, "unit": "%"}, {"measurement": "Lym", "setting": "3 h", "result": 76, "unit": "%"}, {"measurement": "MCH", "setting": "3 h", "result": 20.9, "unit": "pg"}, {"measurement": "MCHC", "setting": "3 h", "result": 33.3, "unit": "%"}, {"measurement": "MCV", "setting": "3 h", "result": 63, "unit": "fL"}, {"measurement": "Mono", "setting": "3 h", "result": 2.8, "unit": "%"}, {"measurement": "Neu", "setting": "3 h", "result": 19.2, "unit": "%"}, {"measurement": "PT", "setting": "3 h", "result": 11.8, "unit": "s"}, {"measurement": "Plat", "setting": "3 h", "result": 112.2, "unit": "x10_4/uL"}, {"measurement": "RBC", "setting": "3 h", "result": 638.8, "unit": "x10_4/ul"}, {"measurement": "Ret", "setting": "3 h", "result": 7.5, "unit": "%"}, {"measurement": "WBC", "setting": "3 h", "result": 112.4, "unit": "x10_2/uL"}, {"measurement": "KIDNEY_L", "setting": "3 h", "result": 1, "unit": "g"}, {"measurement": "KIDNEY_R", "setting": "3 h", "result": 1, "unit": "g"}, {"measurement": "KIDNEY_TOTAL", "setting": "3 h", "result": 1.9, "unit": "g"}, {"measurement": "LIVER", "setting": "3 h", "result": 10.3, "unit": "g"}, {"measurement": "A/G", "setting": "3 h", "result": 1.8}, {"measurement": "ALP", "setting": "3 h", "result": 965.2, "unit": "IU/L"}, {"measurement": "ALT", "setting": "3 h", "result": 42.2, "unit": "IU/L"}, {"measurement": "AST", "setting": "3 h", "result": 79.2, "unit": "IU/L"}, {"measurement": "BUN", "setting": "3 h", "result": 13.4, "unit": "mg/dL"}, {"measurement": "CRE", "setting": "3 h", "result": 0.4, "unit": "mg/dL"}, {"measurement": "Ca", "setting": "3 h", "result": 10.7, "unit": "mg/dL"}, {"measurement": "Cl", "setting": "3 h", "result": 104.4, "unit": "meq/L"}, {"measurement": "DBIL", "setting": "3 h", "result": 0.074, "unit": "mg/dL"}, {"measurement": "GLC", "setting": "3 h", "result": 193.6, "unit": "mg/dL"}, {"measurement": "IP", "setting": "3 h", "result": 9, "unit": "mg/dL"}, {"measurement": "K", "setting": "3 h", "result": 4.1, "unit": "meq/L"}, {"measurement": "LDH", "setting": "3 h", "result": 188.8, "unit": "IU/L"}, {"measurement": "Na", "setting": "3 h", "result": 142.2, "unit": "meq/L"}, {"measurement": "PL", "setting": "3 h", "result": 139.2, "unit": "mg/dL"}, {"measurement": "RALB", "setting": "3 h", "result": 3.5, "unit": "g/dL"}, {"measurement": "TBIL", "setting": "3 h", "result": 0.1, "unit": "mg/dL"}, {"measurement": "TC", "setting": "3 h", "result": 76.8, "unit": "mg/dL"}, {"measurement": "TG", "setting": "3 h", "result": 38.2, "unit": "mg/dL"}, {"measurement": "TP", "setting": "3 h", "result": 5.5, "unit": "g/dL"}, {"measurement": "gamma-GTP", "setting": "3 h", "result": 0.6, "unit": "IU/L"}, {"measurement": "TERMINAL_BW", "setting": "6 h", "result": 223.7, "unit": "g"}, {"measurement": "APTT", "setting": "6 h", "result": 19.5, "unit": "s"}, {"measurement": "Bas", "setting": "6 h", "result": 0.6, "unit": "%"}, {"measurement": "Eos", "setting": "6 h", "result": 0.8, "unit": "%"}, {"measurement": "Fbg", "setting": "6 h", "result": 229.2, "unit": "mg/dL"}, {"measurement": "Hb", "setting": "6 h", "result": 13.2, "unit": "g/dL"}, {"measurement": "Ht", "setting": "6 h", "result": 39.3, "unit": "%"}, {"measurement": "Lym", "setting": "6 h", "result": 76.8, "unit": "%"}, {"measurement": "MCH", "setting": "6 h", "result": 20.5, "unit": "pg"}, {"measurement": "MCHC", "setting": "6 h", "result": 33.6, "unit": "%"}, {"measurement": "MCV", "setting": "6 h", "result": 60.9, "unit": "fL"}, {"measurement": "Mono", "setting": "6 h", "result": 2.8, "unit": "%"}, {"measurement": "Neu", "setting": "6 h", "result": 18.6, "unit": "%"}, {"measurement": "PT", "setting": "6 h", "result": 12.1, "unit": "s"}, {"measurement": "Plat", "setting": "6 h", "result": 129.2, "unit": "x10_4/uL"}, {"measurement": "RBC", "setting": "6 h", "result": 644.8, "unit": "x10_4/ul"}, {"measurement": "Ret", "setting": "6 h", "result": 6.7, "unit": "%"}, {"measurement": "WBC", "setting": "6 h", "result": 96.3, "unit": "x10_2/uL"}, {"measurement": "KIDNEY_L", "setting": "6 h", "result": 1, "unit": "g"}, {"measurement": "KIDNEY_R", "setting": "6 h", "result": 1, "unit": "g"}, {"measurement": "KIDNEY_TOTAL", "setting": "6 h", "result": 2, "unit": "g"}, {"measurement": "LIVER", "setting": "6 h", "result": 9.6, "unit": "g"}, {"measurement": "A/G", "setting": "6 h", "result": 1.6}, {"measurement": "ALP", "setting": "6 h", "result": 989.2, "unit": "IU/L"}, {"measurement": "ALT", "setting": "6 h", "result": 46.8, "unit": "IU/L"}, {"measurement": "AST", "setting": "6 h", "result": 78.6, "unit": "IU/L"}, {"measurement": "BUN", "setting": "6 h", "result": 12.8, "unit": "mg/dL"}, {"measurement": "CRE", "setting": "6 h", "result": 0.3, "unit": "mg/dL"}, {"measurement": "Ca", "setting": "6 h", "result": 10.5, "unit": "mg/dL"}, {"measurement": "Cl", "setting": "6 h", "result": 104.8, "unit": "meq/L"}, {"measurement": "DBIL", "setting": "6 h", "result": 0.072, "unit": "mg/dL"}, {"measurement": "GLC", "setting": "6 h", "result": 196.2, "unit": "mg/dL"}, {"measurement": "IP", "setting": "6 h", "result": 8.6, "unit": "mg/dL"}, {"measurement": "K", "setting": "6 h", "result": 3.9, "unit": "meq/L"}, {"measurement": "LDH", "setting": "6 h", "result": 219, "unit": "IU/L"}, {"measurement": "Na", "setting": "6 h", "result": 141.8, "unit": "meq/L"}, {"measurement": "PL", "setting": "6 h", "result": 137, "unit": "mg/dL"}, {"measurement": "RALB", "setting": "6 h", "result": 3.5, "unit": "g/dL"}, {"measurement": "TBIL", "setting": "6 h", "result": 0.1, "unit": "mg/dL"}, {"measurement": "TC", "setting": "6 h", "result": 75.8, "unit": "mg/dL"}, {"measurement": "TG", "setting": "6 h", "result": 56.4, "unit": "mg/dL"}, {"measurement": "TP", "setting": "6 h", "result": 5.6, "unit": "g/dL"}, {"measurement": "gamma-GTP", "setting": "6 h", "result": 1, "unit": "IU/L"}]}]}
